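The compound was tested at five concentrations on cells cultured in 96-well plates, with a 48-hour exposure period. GI50 marks 50% less growth. Definition used: TGI = concentration required for complete inhibition of growth.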
Key:
Experiment in all cases: growth of human tumour cells (NCI), 48 h
786-0 renal = tested on: 786-0 renal
A498 renal = tested on: A498 renal
A549 NSCLC = tested on: A549 NSCLC
BT-549 breast = tested on: BT-549 breast
CAKI-1 renal = tested on: CAKI-1 renal
CCRF-CEM leukemia = tested on: CCRF-CEM leukemia
COLO 205 colon = tested on: COLO 205 colon
DU-145 prostate = tested on: DU-145 prostate
EKVX NSCLC = tested on: EKVX NSCLC
HCC-2998 colon = tested on: HCC-2998 colon
HCT-116 colon = tested on: HCT-116 colon
HCT-15 colon = tested on: HCT-15 colon
HL-60(TB) leukemia = tested on: HL-60(TB) leukemia
HOP-62 NSCLC = tested on: HOP-62 NSCLC
HOP-92 NSCLC = tested on: HOP-92 NSCLC
HS 578T breast = tested on: HS 578T breast
HT29 colon = tested on: HT29 colon
IGROV1 ovarian = tested on: IGROV1 ovarian
K-562 leukemia = tested on: K-562 leukemia
KM12 colon = tested on: KM12 colon
LOX IMVI melanoma = tested on: LOX IMVI melanoma
M14 melanoma = tested on: M14 melanoma
MCF7 breast = tested on: MCF7 breast
MDA-MB-231 breast = tested on: MDA-MB-231 breast
MDA-MB-435 = tested on: MDA-MB-435
MOLT-4 leukemia = tested on: MOLT-4 leukemia
NCI-H226 lung = tested on: NCI-H226 lung
NCI-H23 lung = tested on: NCI-H23 lung
NCI-H460 lung = tested on: NCI-H460 lung
NCI-H522 lung = tested on: NCI-H522 lung
NCI/ADR-RES ovarian = tested on: NCI/ADR-RES ovarian
OVCAR-3 ovarian = tested on: OVCAR-3 ovarian
OVCAR-4 ovarian = tested on: OVCAR-4 ovarian
OVCAR-5 ovarian = tested on: OVCAR-5 ovarian
OVCAR-8 ovarian = tested on: OVCAR-8 ovarian
PC-3 prostate = tested on: PC-3 prostate
RPMI-8226 leukemia = tested on: RPMI-8226 leukemia
RXF 393 renal = tested on: RXF 393 renal
SF-268 CNS = tested on: SF-268 CNS
SF-295 CNS = tested on: SF-295 CNS
SF-539 CNS = tested on: SF-539 CNS
SK-MEL-2 melanoma = tested on: SK-MEL-2 melanoma
SK-MEL-28 melanoma = tested on: SK-MEL-28 melanoma
SK-MEL-5 melanoma = tested on: SK-MEL-5 melanoma
SK-OV-3 ovarian = tested on: SK-OV-3 ovarian
SN12C renal = tested on: SN12C renal
SNB-19 CNS = tested on: SNB-19 CNS
SNB-75 CNS = tested on: SNB-75 CNS
SR leukemia = tested on: SR leukemia
SW-620 colon = tested on: SW-620 colon
T-47D breast = tested on: T-47D breast
TK-10 renal = tested on: TK-10 renal
U251 CNS = tested on: U251 CNS
UACC-257 melanoma = tested on: UACC-257 melanoma
UACC-62 melanoma = tested on: UACC-62 melanoma
UO-31 renal = tested on: UO-31 renal

**Q.** What does the source list for CC1CN1C1=CC(=O)c2c(c(CO)cn2C)C1=O (centres undefined)?
**A.** GI50 (786-0 renal): 232 nM; TGI (786-0 renal): 2520 nM; GI50 (A498 renal): 358 nM; TGI (A498 renal): 1760 nM; GI50 (A549 NSCLC): 62.3 nM; TGI (A549 NSCLC): 3.18 µM; GI50 (BT-549 breast): 293 nM; TGI (BT-549 breast): 1570 nM; GI50 (CAKI-1 renal): 18 nM; TGI (CAKI-1 renal): 293 nM; GI50 (CCRF-CEM leukemia): 3.35 µM; TGI (CCRF-CEM leukemia): 62.8 µM; GI50 (COLO 205 colon): 171 nM; GI50 (DU-145 prostate): < 11.2 nM; TGI (DU-145 prostate): 234 nM; GI50 (EKVX NSCLC): 3.09 µM; TGI (EKVX NSCLC): 17 µM; GI50 (HCC-2998 colon): 105 nM; TGI (HCC-2998 colon): 415 nM; GI50 (HCT-116 colon): 137 nM; TGI (HCT-116 colon): 1030 nM; GI50 (HCT-15 colon): 65.1 nM; TGI (HCT-15 colon): 649 nM; GI50 (HL-60(TB) leukemia): 22.9 µM; TGI (HL-60(TB) leukemia): 75.2 µM; GI50 (HOP-62 NSCLC): 62 nM; TGI (HOP-62 NSCLC): 386 nM; GI50 (HOP-92 NSCLC): 9.92 µM; TGI (HOP-92 NSCLC): 35.6 µM; GI50 (HS 578T breast): 689 nM; GI50 (HT29 colon): 220 nM; GI50 (IGROV1 ovarian): 306 nM; TGI (IGROV1 ovarian): 5.15 µM; GI50 (K-562 leukemia): 833 nM; TGI (K-562 leukemia): 64.5 µM; GI50 (KM12 colon): 261 nM; TGI (KM12 colon): 1380 nM; GI50 (LOX IMVI melanoma): 66 nM; TGI (LOX IMVI melanoma): 387 nM; GI50 (M14 melanoma): 13.9 nM; TGI (M14 melanoma): 127 nM; GI50 (MCF7 breast): 63.4 nM; GI50 (MDA-MB-231 breast): 20 µM; TGI (MDA-MB-231 breast): 46.2 µM; GI50 (MDA-MB-435): 311 nM; TGI (MDA-MB-435): 1320 nM; GI50 (MOLT-4 leukemia): 5.43 µM; TGI (MOLT-4 leukemia): > 100 µM; GI50 (NCI-H226 lung): 324 nM; TGI (NCI-H226 lung): 2100 nM; TGI (NCI-H23 lung): 26.5 nM; TGI (NCI-H460 lung): 651 nM; GI50 (NCI-H522 lung): 200 nM; TGI (NCI-H522 lung): 1980 nM; GI50 (NCI/ADR-RES ovarian): 84.8 nM; TGI (NCI/ADR-RES ovarian): 926 nM; GI50 (OVCAR-3 ovarian): 254 nM; TGI (OVCAR-3 ovarian): 1110 nM; GI50 (OVCAR-4 ovarian): 1660 nM; TGI (OVCAR-4 ovarian): 6.34 µM; GI50 (OVCAR-5 ovarian): 1550 nM; TGI (OVCAR-5 ovarian): 14.8 µM; GI50 (OVCAR-8 ovarian): 628 nM; TGI (OVCAR-8 ovarian): > 20.5 µM; GI50 (PC-3 prostate): 313 nM; TGI (PC-3 prostate): 3.3 µM; GI50 (RPMI-8226 leukemia): 241 nM; TGI (RPMI-8226 leukemia): 3.32 µM; GI50 (RXF 393 renal): 861 nM; GI50 (SF-268 CNS): 257 nM; TGI (SF-268 CNS): 5.28 µM; GI50 (SF-295 CNS): 76 nM; TGI (SF-295 CNS): 566 nM; GI50 (SF-539 CNS): 31.3 nM; TGI (SF-539 CNS): 230 nM; GI50 (SK-MEL-2 melanoma): 300 nM; TGI (SK-MEL-2 melanoma): 3.32 µM; GI50 (SK-MEL-28 melanoma): 491 nM; GI50 (SK-MEL-5 melanoma): 57.7 nM; TGI (SK-MEL-5 melanoma): 191 nM; GI50 (SK-OV-3 ovarian): 509 nM; TGI (SK-OV-3 ovarian): 23.2 µM; GI50 (SN12C renal): 70.6 nM; TGI (SN12C renal): 1280 nM; GI50 (SNB-19 CNS): 247 nM; TGI (SNB-19 CNS): 3.74 µM; GI50 (SNB-75 CNS): 438 nM; TGI (SNB-75 CNS): 2650 nM; GI50 (SR leukemia): 11.2 nM; TGI (SR leukemia): 69 nM; GI50 (SW-620 colon): 105 nM; TGI (SW-620 colon): 1020 nM; GI50 (T-47D breast): 8.34 µM; TGI (T-47D breast): > 34.6 µM; GI50 (TK-10 renal): 261 nM; TGI (TK-10 renal): 1490 nM; GI50 (U251 CNS): 152 nM; TGI (U251 CNS): 835 nM; GI50 (UACC-257 melanoma): 925 nM; TGI (UACC-257 melanoma): 3.65 µM; GI50 (UACC-62 melanoma): 144 nM; TGI (UACC-62 melanoma): 431 nM; GI50 (UO-31 renal): 124 nM; TGI (UO-31 renal): 386 nM
